The results in this text go back to ChEMBL document CHEMBL1128571, “Acylshikonin analogues: synthesis and inhibition of DNA topoisomerase-I” (J Med Chem, 1995).

pIC50: −log10 of the molar value.

As a reminder, the pIC50 is the IC50 on a negative log10 scale, so that one unit is a factor of ten.

For the assay, the target named is T1, DNA topoisomerase 1 (Homo sapiens, UniProt P11387).
T1 sequence (P11387 whole entry): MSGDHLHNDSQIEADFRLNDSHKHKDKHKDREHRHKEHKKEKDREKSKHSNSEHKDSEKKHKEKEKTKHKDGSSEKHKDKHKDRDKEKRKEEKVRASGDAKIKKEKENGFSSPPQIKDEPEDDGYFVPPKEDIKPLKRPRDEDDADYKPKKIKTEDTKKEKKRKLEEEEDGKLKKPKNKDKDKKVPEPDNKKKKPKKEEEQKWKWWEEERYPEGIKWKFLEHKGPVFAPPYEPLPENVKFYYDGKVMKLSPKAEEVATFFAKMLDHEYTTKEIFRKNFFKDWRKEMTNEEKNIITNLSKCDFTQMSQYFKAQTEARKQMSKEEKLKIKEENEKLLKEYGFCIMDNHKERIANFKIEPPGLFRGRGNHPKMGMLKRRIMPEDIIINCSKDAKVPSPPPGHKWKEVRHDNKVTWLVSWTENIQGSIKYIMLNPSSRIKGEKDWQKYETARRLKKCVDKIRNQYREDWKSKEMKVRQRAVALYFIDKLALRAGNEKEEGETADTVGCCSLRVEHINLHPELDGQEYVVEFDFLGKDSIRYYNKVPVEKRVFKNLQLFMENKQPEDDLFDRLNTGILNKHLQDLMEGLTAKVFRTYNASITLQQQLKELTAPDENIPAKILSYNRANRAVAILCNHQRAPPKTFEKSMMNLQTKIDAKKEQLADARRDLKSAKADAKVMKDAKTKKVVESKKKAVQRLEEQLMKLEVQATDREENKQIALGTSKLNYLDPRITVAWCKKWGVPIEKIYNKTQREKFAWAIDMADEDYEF
Put plainly: Inhibitory activity against DNA topoisomerase-1 obtained from Hela cells. It counts as cell-based.
Regarding `CC(C)=CC[C@@H](OC(=O)c1ccccc1)C1=CC(=O)c2c(O)ccc(O)c2C1=O`, the negative-log IC50 (pIC50) is 3.82.

For `CC(C)=CC[C@@H](OC(=O)C(c1ccccc1)c1ccccc1)C1=CC(=O)c2c(O)ccc(O)c2C1=O`, the pIC50 was less than 3.20.

For `CCCCCCCCC(=O)O[C@H](CC=C(C)C)C1=CC(=O)c2c(O)ccc(O)c2C1=O`, the pIC50 was less than 3.20.

`CC/C=C/C(=O)O[C@H](CC=C(C)C)C1=CC(=O)c2c(O)ccc(O)c2C1=O`: the pIC50 was 4.10.

`CC(C)=CC[C@@H](OC(=O)CCl)C1=CC(=O)c2c(O)ccc(O)c2C1=O` had a pIC50 of 3.86.

`C=CCCC(=O)O[C@H](CC=C(C)C)C1=CC(=O)c2c(O)ccc(O)c2C1=O` gave a pIC50 of 4.40.

`CCCC(=O)O[C@H](CC=C(C)C)C1=CC(=O)c2c(O)ccc(O)c2C1=O` had a pIC50 of 3.84.

`CCCCCCCC(=O)O[C@H](CC=C(C)C)C1=CC(=O)c2c(O)ccc(O)c2C1=O`: the pIC50 was less than 3.20.

`CC(C)=CC[C@@H](OC(=O)/C=C(C)/C=C/C=C(C)/C=C/C1=C(C)CCCC1(C)C)C1=CC(=O)c2c(O)ccc(O)c2C1=O` gave a pIC50 of less than 3.20.

Molecule `CC(C)=CC[C@@H](OC(=O)Cc1ccccc1)C1=CC(=O)c2c(O)ccc(O)c2C1=O` gave a pIC50 of 3.65.

For the molecule `CCCCCCCCCCCCCCCCCC(=O)O[C@H](CC=C(C)C)C1=CC(=O)c2c(O)ccc(O)c2C1=O`, the pIC50 was less than 3.20.

For `CCCCCCC(=O)O[C@H](CC=C(C)C)C1=CC(=O)c2c(O)ccc(O)c2C1=O`, the pIC50 is 3.20.

Turning to `CC(C)=CC[C@@H](OC(=O)C(C)C)C1=CC(=O)c2c(O)ccc(O)c2C1=O` [ISOBUTYLSHIKONIN], the pIC50 is 4.08.

Turning to `CCCCC(=O)O[C@H](CC=C(C)C)C1=CC(=O)c2c(O)ccc(O)c2C1=O`, the pIC50 was 3.79.

Molecule `CCC(=O)O[C@H](CC=C(C)C)C1=CC(=O)c2c(O)ccc(O)c2C1=O` showed a pIC50 of 4.36.

`CC(C)=CC[C@@H](OC(=O)C=C(C)C)C1=CC(=O)c2c(O)ccc(O)c2C1=O` [DIMETHYLACRYLSHIKONIN] showed a pIC50 of 4.11.

Regarding `CC(=O)O[C@H](CC=C(C)C)C1=CC(=O)c2c(O)ccc(O)c2C1=O` [ACETYLSHIKONIN], the pIC50 is 4.35.

In the case of `CCCCC/C=C/C/C=C/C/C=C/CCCCC(=O)O[C@H](CC=C(C)C)C1=CC(=O)c2c(O)ccc(O)c2C1=O`, the negative logarithm of the IC50 (pIC50) is less than 3.20.

`CCCCCCCC/C=C/CCCCCCCC(=O)O[C@H](CC=C(C)C)C1=CC(=O)c2c(O)ccc(O)c2C1=O` had a pIC50 of less than 3.20.

Consider `CCCCCCCCCCCC(=O)O[C@H](CC=C(C)C)C1=CC(=O)c2c(O)ccc(O)c2C1=O`, for which the pIC50 was less than 3.20.

With `CC(C)=CC[C@@H](O)C1=CC(=O)c2c(O)ccc(O)c2C1=O` [SHIKONIN], the pIC50 was 3.68.

In turn, `CC(C)=CC[C@@H](OC(=O)C(Cl)(Cl)Cl)C1=CC(=O)c2c(O)ccc(O)c2C1=O` showed a pIC50 of 3.94.

Regarding `CCC/C=C/C(=O)O[C@H](CC=C(C)C)C1=CC(=O)c2c(O)ccc(O)c2C1=O`, the pIC50 is 3.82.

As for `CCCCC/C=C/C/C=C/CCCCCCCC(=O)O[C@H](CC=C(C)C)C1=CC(=O)c2c(O)ccc(O)c2C1=O`, the pIC50 is less than 3.20.

On to `C/C=C/C=C/C(=O)O[C@H](CC=C(C)C)C1=CC(=O)c2c(O)ccc(O)c2C1=O`, for which the pIC50 is 3.89.

`CCCCCCCCCCCCCCCC(=O)O[C@H](CC=C(C)C)C1=CC(=O)c2c(O)ccc(O)c2C1=O` had a pIC50 of less than 3.20.

In the case of `C=CCC/C=C/C(=O)O[C@H](CC=C(C)C)C1=CC(=O)c2c(O)ccc(O)c2C1=O`, the pIC50 is 3.90.

In turn, `CC/C=C/CC(=O)O[C@H](CC=C(C)C)C1=CC(=O)c2c(O)ccc(O)c2C1=O` gave a pIC50 of 3.82.

`CCCCCC(=O)O[C@H](CC=C(C)C)C1=CC(=O)c2c(O)ccc(O)c2C1=O` showed a pIC50 of 3.68.

Molecule `CC(C)=CC[C@@H](OC(=O)\C=C(C)/C=C/C=C(C)/C=C/C1=C(C)CCCC1(C)C)C1=CC(=O)c2c(O)ccc(O)c2C1=O` showed a pIC50 of less than 3.20.

`CCCCCCCCCC(=O)O[C@H](CC=C(C)C)C1=CC(=O)c2c(O)ccc(O)c2C1=O`: the pIC50 was less than 3.20.

`C=CCCCCC(=O)O[C@H](CC=C(C)C)C1=CC(=O)c2c(O)ccc(O)c2C1=O` had a pIC50 of 3.60.
